Counter-ions that a name gives are not always drawn.
How the values were obtained:
[1] = cited from earlier work
[2] = cited from earlier work; remark: listed apart in the source
[3] = cited from earlier work; remark: listed apart in the source
[4] = nebulized saline solution, inhalation; cited from earlier work
[5] = Literature pharmacokinetics after intravenous infusion; assay type: in vivo; details: human, plasma, 0.2 mg/kg; 0.20 mg/kg 40 minutes intravenous infusion, predicted on the basis of literature data
Method: Administration route with currently expected minimum level of metabolites is an intravenous one. After intravenous infusion of racemic ketamine at 0.5 mg/kg for 40 minutes, the parent drug maintains its systemic concentration about 200 ng/ml for about 40 minutes, afterwards the concentration falls down quickly with a half-period below 2 hours. Simultaneously, norketamine reaches its maximum concentration at the level of 10-20% of ketamine concentration. The percentage of area-under-curve (AUC) norketamine to ketamine is about 20-40%.

NMDA receptor = details: cited from earlier work
[6] = after oral administration of ketamine
[7] = after intravenous infusion of racemic ketamine

## CNC1(c2ccccc2Cl)CCCCC1=O (racemic) [ketamine]
[1]; human, in vivo
  share of patients with treatment-resistant depression responsive to treatment: about ⅔
[2]; orally administered
  bioavailability: 16-20%
[3]; after intravenous infusion 0.5 mg/kg for 40 minutes
  half-period of concentration fall: below 2 hours
[3]; intravenous infusion 0.5 mg/kg for 40 minutes, maintained about 40 minutes
  systemic concentration of parent drug: about 200 ng/ml

## CN[C@]1(c2ccccc2Cl)CCCCC1=O [esketamine hydrochloride]
[4]
  inhaled bioavailability: reduced due to both dose-independent and dose-dependent impairment of pulmonary uptake

## CN[C@]1(c2ccccc2Cl)CCCCC1=O [esketamine]
[1]; TRD patients, 40-minute i.v. infusion of 0.20 mg/kg or 0.40 mg/kg (Singh et al.)
  antidepressant effects: rapid onset of robust antidepressant effects
[5]
  concentration at 40 min: 60 to 100 ng/mL

## NC1(c2ccccc2Cl)CCCCC1=O (stereo not drawn) [norketamine]
[2]; [6]
  AUC for norketamine relative to ketamine: exceeding 1000%
  norketamine level as % of ketamine level: 500-1000%
NMDA receptor
  activity on NMDA receptor relative to ketamine: many times less active than ketamine
[3]; [7]
  maximum concentration as % of ketamine concentration: 10-20%
  percentage of AUC norketamine to ketamine: 20-40%

— patent US20220230723A1, “Electronically Supervised Administration of a Pharmaceutical Composition” (Celon Pharma S.A., priority 2019, published 2022)
